These results are taken from patent publication US20220153741A1, “HETEROCYCLIC COMPOUNDS AS INHIBITORS OF KRAS G12C” (Guangdong Newopp Biopharmaceuticals Co., Ltd., priority 2019, published 2022).

The term IC50 denotes the midpoint of a concentration-inhibition curve. A lower IC50 goes with greater potency.

Where two headings read alike, the source gives them in different places.

The conditions of data set [1]: amide bond.
For data set [2], the system named is NCI-H358 (H358, KRAS G12C) cancer cell line. Put plainly: 3D proliferation assay, NCI-H358 (CellTiter-Glo). Format: cell-based. The conditions noted are these: 96-well spheroid plate, 4 days. The protocol: (§1) 3D proliferation assay: NCI-H358 (H358, KRAS G12C) and LS513 (KRAS G12D) cancer cell lines were obtained from ATCC (American Type Culture Collection, VA). Cells were plated in 96-well spheroid plate (CORNING INC, NY)) in RPMI-1640 with 10% FBS. Compounds (11-point dilutions) and DMSO were added to the wells and incubated with cells for 4 days at 37° C. Cell viability was then determined by CellTiter-Glo (Promega, WI). IC50 values of compounds were determined as the concentration of 50% inhibition of cell viability compared to DMSO treated cells (A: IC50<0.1 μM; B: IC50 between 0.1 μM and 1 μM; C: IC50 between 1 μM and 10 μM; D: >10 μM; ND: not determined).

Data set [3] concerns LS513 (KRAS G12D) cancer cell line. Put plainly: 3D proliferation assay, LS513 (CellTiter-Glo). In kind it is cell-based. The conditions noted are these: 96-well spheroid plate, 4 days. The method, then:
as §1
Background: In ATP-based viability assays light output follows the ATP content of the culture.

Data set [4] deals with pERK1/2 in NCI-H358 cells. Nature of the data set: Phospho-ERK (pERK) assay in NCI-H358 cells. In kind it is cell-based. The conditions noted are these: 3 hours compound treatment, pERK1/2 antibody fluorescence. The protocol:
Phospho-ERK (pERK) assay: NCI-H358 cells were seeded in 96-well plates (Greiner) in RPMI-1640 with 10% FBS 16 hours prior to compound treatment. Serial dilution of compounds was made and added to wells, and then incubated at 37° C. for 3 hours. After the treatment, cells were fixed with 3.7% formaldehyde (VWR) for 20 min at RT, followed by being permeabilized with ice-cold methanol at −20° C. for 20 min. The methanol was then dumped and replaced with Intercept® (PBS) Blocking Buffer (LiCOR) supplemented with 0.05% Tween-20 and incubated at RT for 1 hour with gentle rocking. The blocking buffer was then replaced with the blocking buffer containing pERK1/2 antibody (Cell Signaling) and incubated at 4° C. overnight with gentle rocking. The plate was washed 5 times with 1×PBS+0.1% Tween-20. The blocking buffer containing LiCOR IRDye 680RD secondary antibody (LiCOR,) was then added and incubated for 1 hour at RT with gentle rocking. After washing 5 times with 1×PBS+0.1% Tween-20, the plate was read using CLARIOstar plate reader (BMG LABTECH GmbH). IC50 values were determined as the concentration of 50% inhibition of the fluorescence signal compared to DMSO treated cells (A: IC50<0.1 μM; B: IC50 between 0.1 μM and 1 μM; C: IC50 between 1 μM and 10 μM; D: >10 μM; ND: not determined).

`CC(C)c1cccc2c1-n1c(=O)[nH]c(=O)c3cc(F)c(nc31)-c1c(F)cccc1NC(=O)CN2`: the ring closure, yield of all isomers in data set [1] (from CC(C)c1cccc(NCC(=O)O)c1-n1c(=O)[nH]c(=O)c2cc(F)c(-c3c(N)cccc3F)nc21, TCFH/N-methylimidazole/pyridine, MeCN/DMF (1:1), 66.0 mM, 11.0 h) was determined as 32.7%.

In turn, `CC(C)c1nccc2c1-n1c(=O)nc(O)c3cc(F)c(nc31)-c1c(F)cccc1NC(=O)CC2` returned a ring closure, yield of all isomers in data set [1] (from CC(C)c1nccc(CCC(=O)O)c1-n1c(=O)nc(O)c2cc(F)c(-c3c(N)cccc3F)nc21, TCFH/NMI, DMF, 37.0 mM, 25.0 °C, 1.0 h) of 46.7%.

Take `C=CC(=O)N1CCN(c2nc(=O)n3c4nc(c(F)cc24)-c2c(F)cccc2NCCCc2ccnc(C(C)C)c2-3)[C@@H](C)C1` (single isomer, unassigned) [Example 2A]: the IC50 in data set [2] was under 100 nM; in data set [3] it was over 10000 nM; in data set [4] (Homo sapiens, NCI-H358, 3 h), under 100 nM.

With `C=CC(=O)N1CCN(c2nc(=O)n3c4nc(c(F)cc24)-c2c(F)cccc2NCCCc2ccnc(C(C)C)c2-3)[C@@H](C)C1` (single isomer, unassigned) [Example 2B], the results for the IC50 in data set [2], in data set [3] and in data set [4] were 100 to 1000 nM, over 10000 nM and 100 to 1000 nM, respectively.

Regarding `C=CC(=O)N1CCN(c2nc(=O)n3c4nc(c(F)cc24)-c2c(F)cccc2NC(=O)CCc2ccnc(C(C)C)c2-3)[C@@H](C)C1` [Example 1, (S)-2^4-(4-Acryloyl-2-methylpiperazin-1-yl)-2^6,3^6-difluoro-1^2-isopropyl-2^1,2^2-dihydro-4-aza-2(1,7)-pyrido[2,3-d]pyrimidina-1(3,4)-pyridina-3(1,2)-benzenacycloheptaphane-2^2,5-dione], the IC50 was under 100 nM in data set [2] (Homo sapiens, NCI-H358, 96 h); over 10000 nM in data set [3] (Homo sapiens, LS-513, 96 h); 100 to 1000 nM in data set [4] (Homo sapiens, NCI-H358, 3 h).

In the case of `C=CC(=O)N1CCN(c2nc(=O)n3c4nc(c(F)cc24)-c2c(F)cccc2N(C)CCCc2ccnc(C(C)C)c2-3)[C@@H](C)C1` [Example 4, (S)-2^4-(4-acryloyl-2-methylpiperazin-1-yl)-2^6,3^6-difluoro-1^2-isopropyl-4-methyl-2^1,2^2-dihydro-4-aza-2(1,7)-pyrido[2,3-d]pyrimidina-1(3,4)-pyridina-3(1,2)-benzenacycloheptaphan-2^2-one], the IC50 in data set [2] (Homo sapiens, NCI-H358, 96 h) is under 100 nM; in data set [3] (Homo sapiens, LS-513, 96 h), over 10000 nM; in data set [4] (Homo sapiens, NCI-H358, 3 h), under 100 nM.

For `C=CC(=O)N1C[C@H](C)N(c2nc(=O)n3c4nc(c(F)cc24)-c2c(F)cccc2NCCCc2ccnc(C(C)C)c2-3)C[C@H]1C` [Example 7A, 2^4-((2S,5R)-4-acryloyl-2,5-dimethylpiperazin-1-yl)-2^6,3^6-difluoro-1^2-isopropyl-2^1,2^2-dihydro-4-aza-2(1,7)-pyrido[2,3-d]pyrimidina-1(3,4)-pyridina-3(1,2)-benzenacycloheptaphan-2^2-one], the IC50 was 100 to 1000 nM in data set [2] (Homo sapiens, NCI-H358, 96 h); over 10000 nM in data set [3] (Homo sapiens, LS-513, 96 h); 100 to 1000 nM in data set [4] (Homo sapiens, NCI-H358, 3 h).

On to `C=CC(=O)N1C[C@H](C)N(c2nc(=O)n3c4nc(c(F)cc24)-c2c(F)cccc2NCCCc2ccnc(C(C)C)c2-3)C[C@H]1C` [Example 7B, 2^4-((2S,5R)-4-acryloyl-2,5-dimethylpiperazin-1-yl)-2^6,3^6-difluoro-1^2-isopropyl-2^1,2^2-dihydro-4-aza-2(1,7)-pyrido[2,3-d]pyrimidina-1(3,4)-pyridina-3(1,2)-benzenacycloheptaphan-2^2-one], for which the IC50 was under 100 nM in data set [2], over 10000 nM in data set [3] and under 100 nM in data set [4].

On to `C=CC(=O)N1CCN(c2nc(=O)n3c4nc(c(F)cc24)-c2c(F)cccc2NCCSc2ccnc(C(C)C)c2-3)[C@@H](C)C1` [Example 9, (S)-2^4-(4-acryloyl-2-methylpiperazin-1-yl)-2^6,3^6-difluoro-1^2-isopropyl-2^1,2^2-dihydro-7-thia-4-aza-2(1,7)-pyrido[2,3-d]pyrimidina-1(3,4)-pyridina-3(1,2)-benzenacycloheptaphan-2^2-one], for which the half-inhibitory concentration (IC50) was under 100 nM in data set [2] (Homo sapiens, NCI-H358, 96 h); over 10000 nM in data set [3] (Homo sapiens, LS-513, 96 h); under 100 nM in data set [4] (Homo sapiens, NCI-H358, 3 h).

For `C=CC(=O)N1CCN(c2nc(=O)n3c4nc(c(F)cc24)-c2c(Cl)cccc2NCCCc2ccnc(C(C)C)c2-3)[C@@H](C)C1` [Example 10, (S)-2^4-(4-acryloyl-2-methylpiperazin-1-yl)-3^6-chloro-2^6-fluoro-1^2-isopropyl-2^1,2^2-dihydro-4-aza-2(1,7)-pyrido[2,3-d]pyrimidina-1(3,4)-pyridina-3(1,2)-benzenacycloheptaphan-2^2-one], the IC50 is under 100 nM in data set [2] (Homo sapiens, NCI-H358, 96 h); over 10000 nM in data set [3] (Homo sapiens, LS-513, 96 h); under 100 nM in data set [4] (Homo sapiens, NCI-H358, 3 h).

`C=CC(=O)N1CCN(c2nc(=O)n3c4nc(c(F)cc24)-c2c(F)cccc2N(C(=O)C(C)(C)O)CCCc2ccnc(C(C)C)c2-3)[C@@H](C)C1` [Example 15, (S)-2^4-(4-acryloyl-2-methylpiperazin-1-yl)-2^6,3^6-difluoro-4-(2-hydroxy-2-methylpropanoyl)-1^2-isopropyl-2^1,2^2-dihydro-4-aza-2(1,7)-pyrido[2,3-d]pyrimidina-1(3,4)-pyridina-3(1,2)-benzenacycloheptaphan-2^2-one]: the IC50 in data set [2] (Homo sapiens, NCI-H358, 96 h) is 100 to 1000 nM; in data set [3] (Homo sapiens, LS-513, 96 h), over 10000 nM; in data set [4] (Homo sapiens, NCI-H358, 3 h) it was 100 to 1000 nM.

Consider `C=CC(=O)N1CCN(c2nc(=O)n3c4nc(c(F)cc24)-c2c(F)cccc2NCCCc2cccc(C(C)C)c2-3)[C@@H](C)C1` [Example 17, (S)-2^4-(4-acryloyl-2-methylpiperazin-1-yl)-2^6,3^6-difluoro-1^6-isopropyl-2^1,2^2-dihydro-4-aza-2(1,7)-pyrido[2,3-d]pyrimidina-1,3(1,2)-dibenzenacycloheptaphan-2^2-one], for which the concentration for half-maximal inhibition (IC50) was under 100 nM in data set [2] (Homo sapiens, NCI-H358, 96 h); 1000 to 10000 nM in data set [3] (Homo sapiens, LS-513, 96 h); 100 to 1000 nM in data set [4] (Homo sapiens, NCI-H358, 3 h).

Regarding `C=CC(=O)N1CCN(c2nc(=O)n3c4nc(c(F)cc24)-c2c(F)cccc2N(C)CCCc2cccc(C(C)C)c2-3)[C@@H](C)C1` [Example 19, (S)-2^4-(4-acryloyl-2-methylpiperazin-1-yl)-2^6,3^6-difluoro-1^6-isopropyl-4-methyl-2^1,2^2-dihydro-4-aza-2(1,7)-pyrido[2,3-d]pyrimidina-1,3(1,2)-dibenzenacycloheptaphan-2^2-one], the IC50 in data set [2] (Homo sapiens, NCI-H358, 96 h) is under 100 nM; in data set [3] (Homo sapiens, LS-513, 96 h), 1000 to 10000 nM; in data set [4] (Homo sapiens, NCI-H358, 3 h) it was under 100 nM.

`C=CC(=O)N1C[C@H](C)N(c2nc(=O)n3c4nc(c(F)cc24)-c2c(F)cccc2NCCCc2cccc(C(C)C)c2-3)C[C@H]1C` [Example 20, 2^4-((2S,5R)-4-acryloyl-2,5-dimethylpiperazin-1-yl)-2^6,3^6-difluoro-1^6-isopropyl-2^1,2^2-dihydro-4-aza-2(1,7)-pyrido[2,3-d]pyrimidina-1,3(1,2)-dibenzenacycloheptaphan-2^2-one]: the IC50 in data set [2] (Homo sapiens, NCI-H358, 96 h) was under 100 nM; in data set [3] (Homo sapiens, LS-513, 96 h) it was over 10000 nM; in data set [4] (Homo sapiens, NCI-H358, 3 h), under 100 nM.

For the compound `C=CC(=O)N1CCN(c2nc(=O)n3c4nc(c(F)cc24)-c2c(F)cccc2NCCCNc2cccc(C(C)C)c2-3)[C@@H](C)C1` [Example 22, (S)-2^4-(4-acryloyl-2-methylpiperazin-1-yl)-2^6,3^6-difluoro-1^6-isopropyl-2^1,2^2-dihydro-4,8-diaza-2(1,7)-pyrido[2,3-d]pyrimidina-1,3(1,2)-dibenzenacyclooctaphan-2^2-one], the IC50 in data set [2] (Homo sapiens, NCI-H358, 96 h) was under 100 nM; in data set [3] (Homo sapiens, LS-513, 96 h) it was 100 to 1000 nM; in data set [4] (Homo sapiens, NCI-H358, 3 h), 100 to 1000 nM.

In the case of `C=CC(=O)N1CCN(c2nc(=O)n3c4nc(c(F)cc24)-c2c(F)cccc2NCCCN(C)c2cccc(C(C)C)c2-3)[C@@H](C)C1` [Example 28, (S)-2^4-(4-acryloyl-2-methylpiperazin-1-yl)-2^6,3^6-difluoro-1^6-isopropyl-8-methyl-2^1,2^2-dihydro-4,8-diaza-2(1,7)-pyrido[2,3-d]pyrimidina-1,3(1,2)-dibenzenacyclooctaphan-2^2-one], the half-maximal inhibitory concentration (IC50) is under 100 nM in data set [2] (Homo sapiens, NCI-H358, 96 h); over 10000 nM in data set [3] (Homo sapiens, LS-513, 96 h); 100 to 1000 nM in data set [4] (Homo sapiens, NCI-H358, 3 h).

As to “(S)-2^4-(4-acryloyl-2-methylpiperazin-1-yl)-2^6,3^6-difluoro-1^2-isopropyl-2^1,2^2-dihydro-8-thia-4-aza-2(1,7)-pyrido[2,3-d]pyrimidina-1(3,4)-pyridina-3(1,2)-benzenacyclooctaphan-2^2-one [Example 8]”, the 50% inhibitory concentration (IC50) in data set [2] is under 100 nM; in data set [3] it was over 10000 nM; in data set [4], under 100 nM.
